In patent US6632829B2, “Sulfonamides and derivatives thereof that modulate the activity of endothelin” (Texas Biotechnology Corp., priority 1996, dated 2003):

How the values were obtained:
human ETB receptor = target: T1, human ETB receptor (Homo sapiens, UniProt P24530); assay: Endothelin binding inhibition, Binding Test #2: competition with 125I-ET-1 for ETB receptors on transfected COS7 cell membranes
T1 construct: expressed in transfected cells; host or cells: COS7 cells
T1 sequence (P24530 27-442): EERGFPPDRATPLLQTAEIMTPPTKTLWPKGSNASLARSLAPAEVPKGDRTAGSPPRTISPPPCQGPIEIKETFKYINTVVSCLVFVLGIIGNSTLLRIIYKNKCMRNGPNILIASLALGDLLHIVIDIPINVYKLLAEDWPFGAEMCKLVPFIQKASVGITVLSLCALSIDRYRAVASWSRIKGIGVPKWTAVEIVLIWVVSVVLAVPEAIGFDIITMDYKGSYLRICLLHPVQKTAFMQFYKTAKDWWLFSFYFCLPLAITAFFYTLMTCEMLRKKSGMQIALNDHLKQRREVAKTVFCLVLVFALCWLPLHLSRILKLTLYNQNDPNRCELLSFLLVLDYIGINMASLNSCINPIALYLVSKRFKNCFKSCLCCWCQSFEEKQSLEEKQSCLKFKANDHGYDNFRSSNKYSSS
Outline: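 Membranes from COS7 cells transfected with human ETB receptor, prepared in HEPES pH 7.4 with aprotinin, MnCl2/DNase treatment at 37° C for 30 min. Test compounds compete with 125I-labeled ET-1 for receptor binding; membrane used at 1 μg/50 μL binding buffer.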

human ETA receptors = target: T2, human ETA receptors (Homo sapiens, UniProt P25101); assay: Endothelin binding inhibition, Binding Test #1: competition with 125I-ET-1 for ETA receptors on TE 671 cell membranes
T2 construct: endogenous in cells; host or cells: TE 671 cells (ATCC HTB 139), membrane preparation
T2 sequence (P25101 21-427): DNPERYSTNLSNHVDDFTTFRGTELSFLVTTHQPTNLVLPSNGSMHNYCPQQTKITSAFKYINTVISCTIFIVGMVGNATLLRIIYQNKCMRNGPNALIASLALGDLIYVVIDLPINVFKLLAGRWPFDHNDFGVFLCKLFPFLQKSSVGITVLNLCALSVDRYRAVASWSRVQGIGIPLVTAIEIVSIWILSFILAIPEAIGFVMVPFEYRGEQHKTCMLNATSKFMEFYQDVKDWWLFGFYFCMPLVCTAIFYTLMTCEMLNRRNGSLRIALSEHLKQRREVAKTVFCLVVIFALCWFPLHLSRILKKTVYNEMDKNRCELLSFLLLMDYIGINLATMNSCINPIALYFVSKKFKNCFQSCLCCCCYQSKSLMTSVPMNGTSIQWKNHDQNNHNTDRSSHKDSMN

[1] = incubation at 24° C. (values marked †)
[2] = incubation at 4° C. (values without †)

| inhibition at 100 µM (human ETB receptor; read-out: ETB % inhibition @ 100 μM, @ 100 μM, incubation at 24° C.) | IC50 (human ETA receptors; [1]) | IC50 (human ETB receptor; [1]) | IC50 (human ETB receptor; [2]) | IC50 (human ETA receptors; [2]) | Compound |
| --- | --- | --- | --- | --- | --- |
| 8% | 537 nM |  |  |  | Cc1cc(C)c(OC(=O)c2sccc2S(=O)(=O)Nc2onc(C)c2C)c(C)c1 [N-(3,4-dimethyl-5-isoxazolyl)-2-[(2,4,6-trimethylphenoxy)carbonyl]thiophene-3-sulfonamide] |
|  | 43 nM | 10100 nM |  |  | COc1ccc(CC(=O)c2sccc2S(=O)(=O)Nc2onc(C)c2Cl)cc1 [N-(4-chloro-3-methyl-5-isoxazolyl)-2-[(4-methoxyphenyl)acetyl]thiophene-3-sulfonamide] |
|  | 1730 nM | 111000 nM |  |  | COc1ccc(OC(=O)c2sccc2S(=O)(=O)Nc2onc(C)c2Br)cc1 [N-(4-bromo-3-methyl-5-isoxazolyl)-2-[(4-methoxylphenoxy)carbonyl]thiophene-3-sulfonamide] |
|  | 13 nM | 1200 nM |  |  | COc1cc(Cc2sc3ccccc3c2S(=O)(=O)Nc2onc(C)c2Br)cc(OC)c1OC [N-(4-bromo-3-methyl-5-isoxazolyl)-2-(3,4,5-trimethoxybenzyl)-benzo[b]thiophene-3-sulfonamide] |
|  | 198 nM | 9130 nM |  |  | Cc1ccc(CC(=O)c2sccc2S(=O)(=O)Nc2onc(C)c2Br)cc1 [N-(4-bromo-3-methyl-5-isoxazolyl)-2-[(4-methylphenyl)acetyl]thiophene-3-sulfonamide] |
|  | 79.5 nM | 3240 nM |  |  | Cc1noc(NS(=O)(=O)c2sccc2CC=Cc2cc3c(cc2CO)OCO3)c1Br [N-(4-bromo-3-methyl-5-isoxazolyl)-3-[2-(hydroxymethyl)-4,5-(methylenedioxy)cinnamyl]thiophene-2-sulfonamide] |
|  |  |  | 11300 nM | 3.36 nM | Cc1ccc(NC(=O)c2sccc2S(=O)(=O)Nc2onc(C)c2C)cc1 [N-(3,4-dimethyl-5-isoxazolyl)-2-[(4-methylphenyl)aminocarbonyl]thiophene-3-sulfonamide] |
|  | 648 nM | 68500 nM |  |  | Cc1ccc(OC(=O)c2sccc2S(=O)(=O)Nc2onc(C)c2Cl)c(C)c1 [N-(4-chloro-3-methyl-5-isoxazolyl)-2-[(2,4-dimethylphenoxy)carbonyl]thiophene-3-sulfonamide] |
|  |  | 6110 nM |  | 160 nM | CCCCc1ccc(-c2ccsc2S(=O)(=O)Nc2onc(C)c2Br)cc1 [N-(4-bromo-3-methyl-5-isoxazolyl)-3-(4-butylphenyl)thiophene-2-sulfonamide] |
|  | 5.6 nM | 16800 nM |  |  | Cc1noc(NS(=O)(=O)c2ccsc2C(=O)Nc2cc3c(cc2CCO)OCO3)c1Cl [N-(4-chloro-3-methyl-5-isoxazolyl)-2-[3,4-(methylenedioxy)-6-(2-hydroxyethyl)phenylaminocarbonyl]thiophene-3-sulfonamide] |
|  | 138 nM | 11900 nM |  |  | CCCc1cc2c(cc1OC(=O)c1sccc1S(=O)(=O)Nc1onc(C)c1Br)OCO2 [N-(4-bromo-3-methyl-5-isoxazolyl)-2-{[2-propyl-4,5-(methylenedioxy)phenoxy]carbonyl}thiophene-3-sulfonamide] |
|  | 210 nM | 20000 nM |  |  | Cc1noc(NS(=O)(=O)c2ccsc2C(=O)Nc2ccccc2C(=O)O)c1Br [N-(4-bromo-3-methyl-5-isoxazolyl)-2-[2-carboxylphenyl)aminocarbonyl]-thiophene-3-sulfonamide] |
|  | 17000 nM | 210 nM |  |  | Cc1ccc(-c2ccc(S(=O)(=O)Nc3onc(C)c3Br)s2)s1 [N-(4-bromo-3-methyl-5-isoxazolyl)-5-(5-methyl-2-thienyl)thiophene-2-sulfonamide] |
|  | 7.4 ± 1.1 nM | 939 ± 262 nM | 324 ± 780 nM | 1.5 ± 1.4 nM | Cc1noc(NS(=O)(=O)c2c(Cc3ccc4c(c3)OCO4)sc3ccccc23)c1Br [N-(4-bromo-3-methyl-5-isoxazolyl)-2-[3,4-(methylenedioxy)benzyl]benzo[b]thiophene-3-sulfonamide] |
|  | 13000 nM | 760 nM |  |  | Cc1noc(NS(=O)(=O)c2ccsc2COc2ccc3c(c2Cl)OCO3)c1Br [N-(4-bromo-3-methyl-5-isoxazolyl)-2-[(2-chloro-3,4-methylenedioxy)phenoxymethyl]thiophene-3-sulfonamide] |
|  | 1600 nM | 39000 nM |  |  | Cc1noc(NS(=O)(=O)c2sccc2Cc2ccccc2)c1Br [N-(4-bromo-3-methyl-5-isoxazolyl)-3-benzylthiophene-2-sulfonamide] |

| inhibition at 100 µM (human ETB receptor; read-out: ETB % inhibition @ 100 μM, @ 100 μM, incubation at 24° C.) | IC50 (human ETA receptors; [1]) | IC50 (human ETB receptor; [1]) | IC50 (human ETB receptor; [2]) | IC50 (human ETA receptors; [2]) | Compound |
| --- | --- | --- | --- | --- | --- |
|  | 20900 nM | ~100000 nM |  |  | Cc1noc(NS(=O)(=O)c2ccsc2CC(c2ccc3c(c2)OCO3)N(C)C)c1Cl (stereo not drawn) [N-(4-chloro-3-methyl-5-isoxazolyl)-2-[β-(dimethylamino)-3,4-(methylenedioxy)phenethy]thiophene-3-sulfonamide] |
|  | 6.8 nM | 19800 nM |  |  | Cc1noc(NS(=O)(=O)c2ccsc2C(=O)Nc2cc3c(cc2CNS(C)(=O)=O)OCO3)c1Cl [N-(4-chloro-3-methyl-5-isoxazolyl)-2-[2-methanesulfonylaminomethyl)-4,5-(methylenedioxy)phenylaminocarbonyl]thiophene-3-sulfonamide] |
|  | 420 nM | 12000 nM |  |  | Cc1noc(NS(=O)(=O)c2ccsc2C(=O)OCc2ccc3c(c2)OCO3)c1Cl [N-(4-chloro-3-methyl-5-isoxazolyl)-2-[3,4-(methylenedioxy)benzyloxycarbonyl]thiophene-3-sulfonamide] |
|  | 2100 nM | 27000 nM |  |  | Cc1noc(NS(=O)(=O)c2ccsc2C(=O)C(C#N)c2ccc3c(c2)OCO3)c1Cl (stereo not shown) [N-(4-chloro-3-methyl-5-isoxazolyl)-2-{1-cyano-1-[(3,4-methylenedioxy)phenyl]acetyl}thiophene-3-sulfonamide] |
|  | 56 nM | 92000 nM |  |  | Cc1cc(NC(=O)c2sccc2S(=O)(=O)Nc2onc(C)c2Cl)no1 [N-(4-chloro-3-methyl-5-isoxazolyl)-2-[(5-methyl-3-isoxazolyl)aminocarbonyl]thiophene-3-sulfonamide] |
|  | 21 ± 17 nM | 2940 ± 1320 nM |  |  | COc1ccc(Cc2sc3ccccc3c2S(=O)(=O)Nc2onc(C)c2Br)cc1OC [N-(4-bromo-3-methyl-5-isoxazolyl)-2-(3,4-dimethoxybenzyl)benzo[b]thiophene-3-sulfonamide] |
|  | 80.4 nM | 3280 nM |  |  | Cc1cc2c(cc1C=CCc1sccc1S(=O)(=O)Nc1onc(C)c1Br)OCO2 [N-(4-bromo-3-methyl-5-isoxazolyl)-2-[2-methyl-4,5-(methylenedioxy)cinnamyl]thiophene-3-sulfonamide] |
|  | 56.2 nM | 3390 nM |  |  | Cc1cc(C)c(OCc2sccc2S(=O)(=O)Nc2onc(C)c2Br)c(C)c1 [N-(4-bromo-3-methyl-5-isoxazolyl)-2-[(2,4,6-trimethylphenoxy)methyl]thiophene-3-sulfonamide] |
|  | 531 nM | 81500 nM |  |  | Cc1cc(C)c(CNC(=O)c2sccc2S(=O)(=O)Nc2onc(C)c2Cl)c(C)c1CC#N [N-4-chloro-3-methyl-5-isoxazolyl)-2-(3-cyanomethyl-2,4,6-trimethylbenzylaminocarbonyl)thiophene-3-sulfonamide] |
|  |  |  | > 100000 nM | 163 nM | Cc1noc(NS(=O)(=O)c2sccc2C(=O)Nc2ccccc2)c1C [N-(3,4-dimethyl-5-isoxazolyl))-3-(phenylaminocarbonyl)thiophene-2-sulfonamide] |
|  | 940 nM | 660 nM |  |  | Cc1ccc(/C=C/c2ccsc2S(=O)(=O)Nc2onc(C)c2Br)cc1 [N-(4-bromo-3-methyl-5-isoxazolyl)-3-(4-methyl-trans-styryl)thiophene-2-sulfonamide] |
|  | 7 nM | 18000 nM |  |  | Cc1ccc(C)c(CC(=O)c2sccc2S(=O)(=O)Nc2onc(C)c2Cl)c1 [N-(4-chloro-3-methyl-5-isoxazolyl)-2-(2,5-dimethylphenylacetyl)thiophene-3-sulfonamide] |
|  | 346 nM | 7450 nM |  |  | Cc1ccc(OCc2ccsc2S(=O)(=O)Nc2onc(C)c2Br)c(C)c1 [N-(4-bromo-3-methyl-5-isoxazolyl)-3-[(2,4-dimethylphenoxy)methyl]thiophene-2-sulfonamide] |
|  | 89 nM | 37000 nM |  |  | Cc1noc(NS(=O)(=O)c2ccsc2C(=O)NC(=O)c2ccc3c(c2)OCO3)c1Br [N-(4-bromo-3-methyl-5-isoxazolyl)-2-[(3,4-methylenedioxy)benzoyl]aminocarbonyl]thiophene-3-sulfonamide] |
|  | 230 nM | 6200 nM |  |  | Cc1noc(NS(=O)(=O)c2ccsc2C(=O)OCCc2ccc3c(c2)OCO3)c1Cl [N-(4-chloro-3-methy-5-isoxazolyl)-2-[2-(3,4-methylenedioxyphenyl)]ethoxycarbonyl-3-sulfonamide] |
